PMC4434572, “Identification of novel drugs to target dormant micrometastases” (BMC Cancer, 2015)
Several values for one entry are separate records, joined by “and”; a condition that tells them apart may be missing. Equal values may be shown once. Read-outs that look alike come from different tables or passages of the source.

What was measured:
MDA-MB-435 cells [1] = assay: Proliferation (CFDA-AM esterase assay) of cells grown on SISgel, plastic or Matrigel, 48 h drug exposure; type: cell-based; conditions: MDA-MB-435 grown on Matrigel (fully malignant phenotype)
MDA-MB-435-GFP cells = assay: Flank xenograft model of ECM-suppressed cells co-injected with SISgel; type: in vivo, nu/nu mice; conditions: 45 mg/kg i.p. three times weekly for 3 weeks; 4 weeks after implantation
Experimental: The efficacy of DT320 was assessed using a flank xenograft model of ECM-suppressed cancer cells that we developed, as well as an orthotopic model of “triple-negative” breast cancer. All animal protocols were reviewed and approved by the OUHSC Institutional Animal Care and Use Committee according to criteria established by the NIH Office of Laboratory Animal Welfare, and animals were housed 5 per cage with enrichment (tubes) and wood chips in the AALAC-accredited OUHSC Animal Facility with a 12 h light/dark cycle. Animals had access to water and food ad libatum. Animals were monitored daily by trained facility personnel. In the flank model, GFP-labeled cells were co-injected with SISgel, which produces a suppressed, normalized phenotype that persists after the SISgel is resorbed, but which can re-emerge into active tumor growth after 30–60 days. Animals were all female nu/nu mice (NCI National Laboratory Frederick/Charles River animal production program). An optimized number of 5 × 10^5 GFP-labeled MDA-MB-435 cells in 100 μL DMEM medium, without additives, were mixed with 100 μL of SISgel and were kept on ice until injection to prevent polymerization of the SISgel. […] The cells injected into the flanks remained as a non-growing spot, as assessed by fluorometry of the spots and the lack of mitoses seen in tissue sections, for about 3–5 weeks before some began resuming malignant growth. […]

DU145 (prostate) = assay: Proliferation EC50 on Matrigel vs SISgel; type: cell-based
AGS (gastric) = assay: Proliferation EC50 on Matrigel vs SISgel; type: cell-based
MDA-MB-435 cells [2] = assay: Western blot of protein levels after treatment; type: cell-based
Experimental: Protein content of selected proteins identified by reversed phase protein array (see supplementary materials) as being involved mechanistically in the response to DT320 was assayed by Western blot as described using the following antibodies. The following antibodies were purchased from Cell Signaling Technology (Beverly, MA) and diluted per manufacturer’s directions: Rabbit mAb Anti-Phospho-AKT (Ser473) (D9E) XP® #4060, Rabbit mAb anti-p38 MAPK (D13E1) XP® #8690, Mouse mAb anti-Phospho-SAPK/JNK (Thr183/Tyr185) (G9) #9255, Rabbit mAb anti-Phospho-CHK1 (Ser345) (133D3) #2348, Rabbit polyclonal anti-Phospho-CHK2 (Thr68) Antibody #2661, Rabbit polyclonal anti-BAX Antibody #2772, Rabbit polyclonal anti-Vinculin Antibody #4650, Mouse mAb anti-Cyclin D1 (DCS6) #2926, Rabbit mAb anti-Cyclin E2 (D52F9) b #3741, […], Mouse mAb anti-Cyclin B1 (V152) #4135, Rabbit mAb anti-cleaved PARP (Asp214) (D64E10) XP® #5625, Rabbit mAb anti-cleaved Caspase-3 (Asp175) (5A1E) #9654, Rabbit mAb anti-Nanog (D73G4), #4903; Rabbit mAb anti-Oct4 (C52G3) #2890; and Rabbit mAb anti-Sox2 (D6D9) #3579. Specificity of each antibody is illustrated on the company’s web page. For negative controls, pre-immune rabbit IgG was used. No signal was detected in the control IgG samples. No intensities or contrast were modified, but the appropriate bands were cut out using PhotoShop to prepare composite gel images.
To elucidate the mechanism of DT310 and DT320, cell cycle analysis and Western blotting was performed. The proteins for Western blot were selected from preliminary results using reverse phase protein array (RPPA) for DT320 and DT321 treated MDA-MB-435 and T24 cells. […] Proteins within these clusters showing the largest differences in protein expression and that were related to known anticancer drug action were confirmed by Western blot. Docetaxel was used as a positive control because it is known to induce a cell cycle arrest and apoptosis signature.

in vivo = conditions: mouse

Row | Compound | EC50 (MDA-MB-435 cells [1]) [µM] | flank xenografts in which ECM-suppressed cells were extirpated / spots disappeared (MDA-MB-435-GFP cells) | EC50 (DU145 (prostate); DU145 on Matrigel, read-out: EC50 Matrigel) [µM] | EC50 (DU145 (prostate); DU145 on SISgel, read-out: EC50 SISgel) [µM] | Ratio (DU145 (prostate); Matrigel/SISgel EC50, DU145) | EC50 (AGS (gastric); AGS on Matrigel, read-out: EC50 Matrigel) [µM] | EC50 (AGS (gastric); AGS on SISgel, read-out: EC50 SISgel) [µM] | Ratio (AGS (gastric); Matrigel/SISgel EC50, AGS) | Cyclin D1 (CCND1) expression (MDA-MB-435 cells [2]) | cleaved caspase 3 (MDA-MB-435 cells [2]; 48 h) | MTD (in vivo; BALB/c, ip) [mg/kg] | MTD (in vivo) [mg/kg]
1 | O=S(=O)([O-])c1cc(O)c2c(O)c(N=Nc3cccc4ccccc34)c(S(=O)(=O)[O-])cc2c1.[Na+].[Na+] [DT320, 4,5-Dihydroxy-3-(1-naphthalenylazo)-2,7-naphthalenedisulfonic acid disodium salt] | 48.2 | six of eight and 6 of 8 | 183 | 45.7 | 4.0 | 104 | 45.1 | 2.3 | induced | increased signal |  | 
2 | COc1cccc2c1C(=O)c1c(O)c3c(c(O)c1C2=O)C[C@@](O)(C(=O)CO)C[C@@H]3O[C@H]1C[C@H](N)[C@H](O)[C@H](C)O1 [Doxorubicin, reference compound] |  |  |  |  |  |  |  |  |  |  | 1 | 1
